Reference: the CheMixHub viscosity set

Assay: xn = mol fraction of the nth substance listed

C=CC(C)(O)CCC=C(C)C (stereo unspecified) + CCCCCC
298.15 K, 101.33 kPa
Details	viscosity [mPa·s]
x2 = 0.0412	3.82
x2 = 0.103	3.13
x2 = 0.2546	1.952
x2 = 0.3645	1.418
x2 = 0.4938	0.995
x2 = 0.5828	0.792
x2 = 0.6605	0.637
x2 = 0.7376	0.525
x2 = 0.8069	0.445
x2 = 0.8815	0.372
x2 = 0.9366	0.33
x2 = 0.9766	0.306

COCC(C)O (stereo unspecified) + O
viscosity [mPa·s], 101.33 kPa
Details	298.15 K	308.15 K	318.15 K
x1 = 0.0222	1.29	1	0.8257
x1 = 0.0396	1.651	1.236	0.98
x1 = 0.1131	3.035	2.119	1.579
x1 = 0.1959	3.731	2.615	1.925
x1 = 0.301	3.864	2.73	2.015
x1 = 0.3583	3.811	2.663	1.978
x1 = 0.4651	3.515	2.438	1.841
x1 = 0.5264	3.124	2.3	1.744
x1 = 0.7332	2.414	1.823	1.42
x1 = 0.8372	2.094	1.61	1.277
x1 = 0.9035	1.929	1.49	1.189

O=[N+]([O-])c1ccccc1 + c1ccccc1
101 kPa
Details	viscosity [mPa·s]
298.15 K, x2 = 0.2096	1.417
298.15 K, x2 = 0.4874	1.017
298.15 K, x2 = 0.8636	0.681
303.15 K, x1 = 0.0887	0.6013
303.15 K, x1 = 0.1796	0.654
303.15 K, x1 = 0.2737	0.7103
303.15 K, x1 = 0.3694	0.7841
303.15 K, x1 = 0.4673	0.865
303.15 K, x1 = 0.5682	0.9589
303.15 K, x1 = 0.6723	1.075
303.15 K, x1 = 0.7788	1.218
303.15 K, x1 = 0.8874	1.39

O=C[C@H](O)[C@@H](O)[C@H](O[C@@H]1O[C@H](CO)[C@H](O)[C@H](O)[C@H]1O)[C@H](O)CO + O
viscosity [mPa·s]
Details	100 kPa	101 kPa
293.15 K, x1 = 0.002	–	1.074
293.15 K, x1 = 0.004	–	1.155
293.15 K, x1 = 0.005	–	1.241
298.15 K, x1 = 0.002	0.976	0.9875
298.15 K, x1 = 0.004	–	1.065
298.15 K, x1 = 0.005	–	1.149
303.15 K, x1 = 0.002	0.873	0.8893
303.15 K, x1 = 0.004	–	0.9654
303.15 K, x1 = 0.005	–	1.047
308.15 K, x1 = 0.001805	–	0.784
308.15 K, x1 = 0.002	0.786	0.7922
308.15 K, x1 = 0.003683	–	0.864
308.15 K, x1 = 0.004	–	0.8716
308.15 K, x1 = 0.005	–	0.9524
308.15 K, x1 = 0.005432	–	0.934
308.15 K, x1 = 0.006317	–	0.966
308.15 K, x1 = 0.007218	–	1.012
308.15 K, x1 = 0.008098	–	1.063
313.15 K, x1 = 0.002	0.709	0.7014
313.15 K, x1 = 0.004	–	0.7822
313.15 K, x1 = 0.005	–	0.8636
318.15 K, x1 = 0.001802	–	0.601
318.15 K, x1 = 0.002729	–	0.621
318.15 K, x1 = 0.003613	–	0.642
318.15 K, x1 = 0.004521	–	0.67
318.15 K, x1 = 0.006298	–	0.725
318.15 K, x1 = 0.007249	–	0.757
318.15 K, x1 = 0.01074	–	0.885

ClC(Cl)=C(Cl)Cl + CC(=O)c1ccccc1
298.15 K, 101 kPa
Details	viscosity [mPa·s]
x2 = 0.1255	0.893
x2 = 0.3215	1.023
x2 = 0.5397	1.198
x2 = 0.7329	1.382
x2 = 0.9142	1.555

ClC(Cl)=C(Cl)Cl + CO
viscosity [mPa·s], 101.33 kPa
Details	x2 = 0.1436	x2 = 0.2974	x2 = 0.456	x2 = 0.6044	x2 = 0.7514	x2 = 0.9006
293.15 K	0.762	0.721	0.683	0.639	0.585	0.535
303.15 K	0.705	0.667	0.63	0.59	0.552	0.512
313.15 K	0.6515	0.622	0.592	0.561	0.529	0.497

CCCCCO + Cc1ccccc1
Details	viscosity [mPa·s]
293.15 K, 101.33 kPa, x1 = 0.0767	0.623
293.15 K, 101.33 kPa, x1 = 0.155	0.678
293.15 K, 101.33 kPa, x1 = 0.2336	0.747
293.15 K, 101.33 kPa, x1 = 0.3074	0.834
293.15 K, 101.33 kPa, x1 = 0.3459	0.888
293.15 K, 101.33 kPa, x1 = 0.4529	1.094
293.15 K, 101.33 kPa, x1 = 0.5308	1.29
293.15 K, 101.33 kPa, x1 = 0.601	1.512
293.15 K, 101.33 kPa, x1 = 0.6728	1.795
293.15 K, 101.33 kPa, x1 = 0.7788	2.338
293.15 K, 101.33 kPa, x1 = 0.8616	2.883
293.15 K, 101.33 kPa, x1 = 0.8898	3.096
303.15 K, 101 kPa, x1 = 0.0999	0.564
303.15 K, 101 kPa, x1 = 0.1999	0.6272
303.15 K, 101 kPa, x1 = 0.3	0.7213
303.15 K, 101 kPa, x1 = 0.4	0.8366
303.15 K, 101 kPa, x1 = 0.4999	0.9954
303.15 K, 101 kPa, x1 = 0.6001	1.221
303.15 K, 101 kPa, x1 = 0.6999	1.475
303.15 K, 101 kPa, x1 = 0.8001	1.822
303.15 K, 101 kPa, x1 = 0.9001	2.289
303.15 K, 101.33 kPa, x2 = 0.0745	2.508
303.15 K, 101.33 kPa, x2 = 0.2114	1.81
303.15 K, 101.33 kPa, x2 = 0.4291	1.101
303.15 K, 101.33 kPa, x2 = 0.5202	0.925
303.15 K, 101.33 kPa, x2 = 0.609	0.787
303.15 K, 101.33 kPa, x2 = 0.7058	0.678
303.15 K, 101.33 kPa, x2 = 0.8063	0.592
303.15 K, 101.33 kPa, x2 = 0.8629	0.564
303.15 K, 101.33 kPa, x2 = 0.9443	0.536
308.15 K, 101 kPa, x1 = 0.0999	0.5329
308.15 K, 101 kPa, x1 = 0.1999	0.5883
308.15 K, 101 kPa, x1 = 0.3	0.6717
308.15 K, 101 kPa, x1 = 0.4	0.7723
308.15 K, 101 kPa, x1 = 0.4999	0.9102
308.15 K, 101 kPa, x1 = 0.6001	1.106
308.15 K, 101 kPa, x1 = 0.6999	1.324
308.15 K, 101 kPa, x1 = 0.8001	1.617
308.15 K, 101 kPa, x1 = 0.9001	2.077
308.15 K, 101.33 kPa, x2 = 0.0745	2.202
308.15 K, 101.33 kPa, x2 = 0.2114	1.611
308.15 K, 101.33 kPa, x2 = 0.4291	1.001
308.15 K, 101.33 kPa, x2 = 0.5202	0.846
308.15 K, 101.33 kPa, x2 = 0.609	0.726
308.15 K, 101.33 kPa, x2 = 0.7058	0.63
308.15 K, 101.33 kPa, x2 = 0.8063	0.554
308.15 K, 101.33 kPa, x2 = 0.8629	0.53
308.15 K, 101.33 kPa, x2 = 0.9443	0.507
313.15 K, 101 kPa, x1 = 0.0999	0.4988
313.15 K, 101 kPa, x1 = 0.1999	0.5518
313.15 K, 101 kPa, x1 = 0.3	0.6271
313.15 K, 101 kPa, x1 = 0.4	0.7149
313.15 K, 101 kPa, x1 = 0.4999	0.8351
313.15 K, 101 kPa, x1 = 0.6001	1.004
313.15 K, 101 kPa, x1 = 0.6999	1.192
313.15 K, 101 kPa, x1 = 0.8001	1.442
313.15 K, 101 kPa, x1 = 0.9001	1.838
313.15 K, 101.33 kPa, x2 = 0.0745	1.94
313.15 K, 101.33 kPa, x2 = 0.2114	1.439
313.15 K, 101.33 kPa, x2 = 0.4291	0.911
313.15 K, 101.33 kPa, x2 = 0.5202	0.778
313.15 K, 101.33 kPa, x2 = 0.609	0.67
313.15 K, 101.33 kPa, x2 = 0.7058	0.587
313.15 K, 101.33 kPa, x2 = 0.8063	0.52
313.15 K, 101.33 kPa, x2 = 0.8629	0.5
313.15 K, 101.33 kPa, x2 = 0.9443	0.484
318.15 K, 101 kPa, x1 = 0.0999	0.4725
318.15 K, 101 kPa, x1 = 0.1999	0.5195
318.15 K, 101 kPa, x1 = 0.3	0.5876
318.15 K, 101 kPa, x1 = 0.4	0.6645
318.15 K, 101 kPa, x1 = 0.4999	0.7703
318.15 K, 101 kPa, x1 = 0.6001	0.9178
318.15 K, 101 kPa, x1 = 0.6999	1.08
318.15 K, 101 kPa, x1 = 0.8001	1.296
318.15 K, 101 kPa, x1 = 0.9001	1.63
323.15 K, 101 kPa, x1 = 0.0999	0.4511
323.15 K, 101 kPa, x1 = 0.1999	0.4907
323.15 K, 101 kPa, x1 = 0.3	0.5523
323.15 K, 101 kPa, x1 = 0.4	0.6202
323.15 K, 101 kPa, x1 = 0.4999	0.7139
323.15 K, 101 kPa, x1 = 0.6001	0.8422
323.15 K, 101 kPa, x1 = 0.6999	0.982
323.15 K, 101 kPa, x1 = 0.8001	1.169
323.15 K, 101 kPa, x1 = 0.9001	1.459
